Assays:
Type in all cases: in vivo
[1] = tested on: barnyardgrass (Echinochloa crus-galli); experiment: Test A preemergence barnyardgrass; conditions: 0 to 100 scale, 0 no effect, 100 complete control
Outline: (§1)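 Both application timings used the same loam-and-sand medium and the same solvent–surfactant formulation. Postemergence plants were 2–10 cm at the one- to two-leaf stage. After roughly 10 d of greenhouse growth, injury was judged visually against untreated plants, where 0 is no effect and 100 complete control.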

kochia (Kochia scoparia) [2] = experiment: Test A preemergence kochia; conditions: 0 to 100 scale, 0 no effect, 100 complete control
Outline: as §1

[3] = tested on: ragweed (common ragweed, Ambrosia elatior); experiment: Test A preemergence ragweed; conditions: 0 to 100 scale, 0 no effect, 100 complete control
Outline: as §1

[4] = tested on: ryegrass, Italian (Italian ryegrass, Lolium multiflorum); experiment: Test A preemergence ryegrass, Italian; conditions: 0 to 100 scale, 0 no effect, 100 complete control
Outline: as §1

[5] = tested on: foxtail, giant (giant foxtail, Setaria faberii); experiment: Test A preemergence foxtail, giant; conditions: 0 to 100 scale, 0 no effect, 100 complete control
Outline: as §1

[6] = tested on: pigweed (Amaranthus retroflexus); experiment: Test A preemergence pigweed; conditions: 0 to 100 scale, 0 no effect, 100 complete control
Outline: as §1

[7] = tested on: barnyardgrass (Echinochloa crus-galli); experiment: Test A postemergence barnyardgrass; conditions: 0 to 100 scale, 0 is no effect, 100 is complete control
Outline: as §1

kochia (Kochia scoparia) [8] = experiment: Test A postemergence kochia; conditions: 0 to 100 scale, 0 is no effect, 100 is complete control
Outline: as §1

[9] = tested on: ragweed (common ragweed, Ambrosia elatior); experiment: Test A postemergence ragweed; conditions: 0 to 100 scale, 0 is no effect, 100 is complete control
Outline: as §1

[10] = tested on: ryegrass, Italian (Italian ryegrass, Lolium multiflorum); experiment: Test A postemergence ryegrass, Italian; conditions: 0 to 100 scale, 0 is no effect, 100 is complete control
Outline: as §1

[11] = tested on: foxtail, giant (giant foxtail, Setaria faberii); experiment: Test A postemergence foxtail, giant; conditions: 0 to 100 scale, 0 is no effect, 100 is complete control
Outline: as §1

[12] = tested on: pigweed (Amaranthus retroflexus); experiment: Test A postemergence pigweed; conditions: 0 to 100 scale, 0 is no effect, 100 is complete control
Outline: as §1

[13] = tested on: wheat (Triticum aestivum); experiment: Test A postemergence wheat; conditions: 0 to 100 scale, 0 is no effect, 100 is complete control
Outline: as §1

corn (Zea mays) = experiment: Test A postemergence corn; conditions: 0 to 100 scale, 0 is no effect, 100 is complete control
Outline: as §1

[14] = tested on: blackgrass (Alopecurus myosuroides); experiment: Test A postemergence blackgrass; conditions: 0 to 100 scale, 0 is no effect, 100 is complete control
Outline: as §1

[15] = tested on: galium (catchweed bedstraw, Galium aparine); experiment: Test A postemergence galium; conditions: 0 to 100 scale, 0 is no effect, 100 is complete control
Outline: as §1

rice (Oryza sativa) [16] = experiment: Test B flooded paddy test rice; conditions: Table B, Flood, 500 g ai/ha, scale 0 to 100
Outline: (§2)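 Plants at 2-leaf stage in pots flooded 3 cm above soil; compounds applied directly into paddy water, depth kept throughout.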

[17] = tested on: sedge, umbrella (small-flower umbrella sedge, Cyperus difformis); experiment: Test B flooded paddy test sedge, umbrella; conditions: Table B, Flood, 500 g ai/ha, scale 0 to 100
Outline: as §2

[18] = tested on: ducksalad (Heteranthera limosa); experiment: Test B flooded paddy test ducksalad; conditions: Table B, Flood, 500 g ai/ha, scale 0 to 100
Outline: as §2

[19] = tested on: barnyardgrass (Echinochloa crus-galli); experiment: Test B flooded paddy test barnyardgrass; conditions: Table B, Flood, 500 g ai/ha, scale 0 to 100
Outline: as §2

rice (Oryza sativa) [20] = experiment: Test C flooded paddy test rice; conditions: Table C, Flood, scale 0 to 100
Excerpt: (§3) Plant species in the flooded paddy test consisted of rice (Oryza sativa), sedge, umbrella (small-flower umbrella sedge, Cyperus difformis), ducksalad (Heteranthera limosa), and barnyardgrass (Echinochloa crus-galli) grown to the 2-leaf stage for testing. At time of treatment, test pots were flooded to 3 cm above the soil surface, treated by application of test compounds directly to the paddy water, and then maintained at that water depth for the duration of the test. Treated plants and controls were maintained in a greenhouse for 13 to 15 d, after which time all species were compared to controls and visually evaluated. Plant response ratings, summarized in Table C, are based on a scale of 0 to 100 where 0 is no effect and 100 is complete control. A dash (-) response means no test result.

[21] = tested on: sedge, umbrella (small-flower umbrella sedge, Cyperus difformis); experiment: Test C flooded paddy test sedge, umbrella; conditions: Table C, Flood, scale 0 to 100
Excerpt: as §3

[22] = tested on: ducksalad (Heteranthera limosa); experiment: Test C flooded paddy test ducksalad; conditions: Table C, Flood, scale 0 to 100
Excerpt: as §3

[23] = tested on: barnyardgrass (Echinochloa crus-galli); experiment: Test C flooded paddy test barnyardgrass; conditions: Table C, Flood, scale 0 to 100
Excerpt: as §3

Structure (SMILES): O=C1NCCC(c2cccc(C(F)(F)F)c2)C1C(=O)Nc1cccc(Cl)c1F (racemic) [Compound 16]
- Barnyardgrass plant response rating ([1]; 125 g ai/ha): 70
- Barnyardgrass plant response rating ([1]; 500 g ai/ha): 90
- Kochia plant response rating (kochia (Kochia scoparia) [2]; 125 g ai/ha): 30
- Kochia plant response rating (kochia (Kochia scoparia) [2]; 500 g ai/ha): 50
- Ragweed plant response rating ([3]; 125 g ai/ha): 0
- Ragweed plant response rating ([3]; 500 g ai/ha): 0
- Ryegrass, Italian plant response rating ([4]; 125 g ai/ha): 20
- Ryegrass, Italian plant response rating ([4]; 500 g ai/ha): 40
- Foxtail, Giant plant response rating ([5]; 125 g ai/ha): 90
- Foxtail, Giant plant response rating ([5]; 500 g ai/ha): 90
- Pigweed plant response rating ([6]; 125 g ai/ha): 0
- Pigweed plant response rating ([6]; 500 g ai/ha): 0
- Plant response rating, Barnyardgrass ([7]; 125 g ai/ha): 70
- Plant response rating, Barnyardgrass ([7]; 500 g ai/ha): 90
- Plant response rating, Kochia (kochia (Kochia scoparia) [8]; 125 g ai/ha): 0
- Plant response rating, Kochia (kochia (Kochia scoparia) [8]; 500 g ai/ha): 20
- Plant response rating, Ragweed ([9]; 125 g ai/ha): 0
- Plant response rating, Ragweed ([9]; 500 g ai/ha): 0
- Plant response rating, Ryegrass, Italian ([10]; 125 g ai/ha): 0
- Plant response rating, Ryegrass, Italian ([10]; 500 g ai/ha): 20
- Plant response rating, Foxtail, Giant ([11]; 125 g ai/ha): 80
- Plant response rating, Foxtail, Giant ([11]; 500 g ai/ha): 80
- Plant response rating, Pigweed ([12]; 125 g ai/ha): 0
- Plant response rating, Pigweed ([12]; 500 g ai/ha): 0
- Plant response rating, Wheat ([13]; 125 g ai/ha): 20
- Plant response rating, Wheat ([13]; 500 g ai/ha): 30
- Plant response rating, Corn (corn (Zea mays); 125 g ai/ha): 0
- Plant response rating, Corn (corn (Zea mays); 500 g ai/ha): 30
- Plant response rating, Blackgrass ([14]; 125 g ai/ha): 40
- Plant response rating, Blackgrass ([14]; 500 g ai/ha): 60
- Plant response rating, Galium ([15]; 125 g ai/ha): 20
- Plant response rating, Galium ([15]; 500 g ai/ha): 20
- Plant response rating (rice (Oryza sativa) [16]): 0
- Plant response rating [17]: 0
- Plant response rating [18]: 0
- Plant response rating [19]: 0
- Plant response rating (rice (Oryza sativa) [20]; 31 g ai/ha): 0
- Plant response rating (rice (Oryza sativa) [20]; 62 g ai/ha): 0
- Plant response rating (rice (Oryza sativa) [20]; 125 g ai/ha): 0
- Plant response rating (rice (Oryza sativa) [20]; 250 g ai/ha): 0
- Plant response rating ([21]; 31 g ai/ha): 0
- Plant response rating ([21]; 62 g ai/ha): 0
- Plant response rating ([21]; 125 g ai/ha): 0
- Plant response rating ([21]; 250 g ai/ha): 0
- Plant response rating ([22]; 31 g ai/ha): 0
- Plant response rating ([22]; 62 g ai/ha): 0
- Plant response rating ([22]; 125 g ai/ha): 0
- Plant response rating ([22]; 250 g ai/ha): 0
- Plant response rating ([23]; 31 g ai/ha): 0
- Plant response rating ([23]; 62 g ai/ha): 0
- Plant response rating ([23]; 125 g ai/ha): 0
- Plant response rating ([23]; 250 g ai/ha): 0

Structure (SMILES): O=C1NCCC(c2cccc(C(F)(F)F)c2)C1C(=O)Nc1cccc(F)c1Cl (racemic) [Compound 19]
- Barnyardgrass plant response rating ([1]; 125 g ai/ha): 70
- Barnyardgrass plant response rating ([1]; 500 g ai/ha): 80
- Kochia plant response rating (kochia (Kochia scoparia) [2]; 125 g ai/ha): 0
- Kochia plant response rating (kochia (Kochia scoparia) [2]; 500 g ai/ha): 20
- Ragweed plant response rating ([3]; 125 g ai/ha): 0
- Ragweed plant response rating ([3]; 500 g ai/ha): 20
- Ryegrass, Italian plant response rating ([4]; 125 g ai/ha): 20
- Ryegrass, Italian plant response rating ([4]; 500 g ai/ha): 30
- Foxtail, Giant plant response rating ([5]; 125 g ai/ha): 80
- Foxtail, Giant plant response rating ([5]; 500 g ai/ha): 90
- Pigweed plant response rating ([6]; 125 g ai/ha): 0
- Pigweed plant response rating ([6]; 500 g ai/ha): 0
- Plant response rating, Barnyardgrass ([7]; 125 g ai/ha): 60
- Plant response rating, Barnyardgrass ([7]; 500 g ai/ha): 80
- Plant response rating, Kochia (kochia (Kochia scoparia) [8]; 125 g ai/ha): 0
- Plant response rating, Kochia (kochia (Kochia scoparia) [8]; 500 g ai/ha): 20
- Plant response rating, Ragweed ([9]; 125 g ai/ha): 0
- Plant response rating, Ragweed ([9]; 500 g ai/ha): 0
- Plant response rating, Ryegrass, Italian ([10]; 125 g ai/ha): 0
- Plant response rating, Ryegrass, Italian ([10]; 500 g ai/ha): 20
- Plant response rating, Foxtail, Giant ([11]; 125 g ai/ha): 70
- Plant response rating, Foxtail, Giant ([11]; 500 g ai/ha): 80
- Plant response rating, Pigweed ([12]; 125 g ai/ha): 0
- Plant response rating, Pigweed ([12]; 500 g ai/ha): 0
- Plant response rating, Wheat ([13]; 125 g ai/ha): 0
- Plant response rating, Wheat ([13]; 500 g ai/ha): 30
- Plant response rating, Corn (corn (Zea mays); 125 g ai/ha): 0
- Plant response rating, Corn (corn (Zea mays); 500 g ai/ha): 50
- Plant response rating, Blackgrass ([14]; 125 g ai/ha): 40
- Plant response rating, Blackgrass ([14]; 500 g ai/ha): 50
- Plant response rating, Galium ([15]; 125 g ai/ha): 20
- Plant response rating, Galium ([15]; 500 g ai/ha): 20
- Plant response rating (rice (Oryza sativa) [16]): 0
- Plant response rating [17]: 0
- Plant response rating [18]: 60
- Plant response rating [19]: 60
- Plant response rating (rice (Oryza sativa) [20]; 31 g ai/ha): 0
- Plant response rating (rice (Oryza sativa) [20]; 62 g ai/ha): 0
- Plant response rating (rice (Oryza sativa) [20]; 125 g ai/ha): 0
- Plant response rating (rice (Oryza sativa) [20]; 250 g ai/ha): 0
- Plant response rating ([21]; 31 g ai/ha): 0
- Plant response rating ([21]; 62 g ai/ha): 0
- Plant response rating ([21]; 125 g ai/ha): 0
- Plant response rating ([21]; 250 g ai/ha): 0
- Plant response rating ([22]; 31 g ai/ha): 0
- Plant response rating ([22]; 62 g ai/ha): 0
- Plant response rating ([22]; 125 g ai/ha): 0
- Plant response rating ([22]; 250 g ai/ha): 0
- Plant response rating ([23]; 31 g ai/ha): 0
- Plant response rating ([23]; 62 g ai/ha): 0
- Plant response rating ([23]; 125 g ai/ha): 0
- Plant response rating ([23]; 250 g ai/ha): 0

Reference: patent US9944602B2, “Piperidinone herbicides” (E. I. DU PONT DE NEMOURS AND COMPANY, priority 2014, dated 2018)
